Measurements: patent US7960614B2, “Plant transformation and selection” (Arborgen, LLC, priority 2003, dated 2011)

Legend:
[1] = tested on: 10 different loblolly and hybrid pine lines; test: Growth on casein hydrolysate or mixture AA4 with 5-methyltryptophan (FIG. 11); format: cell-based, Pinus taeda and hybrid pine; settings: 0, 3, 10, or 30 mg/L 5-methyltryptophan
Source text: In another experiment, 10 different loblolly and hybrid pine lines were used, from eight genetically diverse families. These lines were initiated and cryopreserved as described in Example 26, and were placed into uniform suspension cultures and plated onto the respective media treatments as described in Example 26. Media for the experiment comprised DCR2 maintenance media containing either 0.5 g/L casein hydrolysate, 0.5 g/L of the derived mixture AA4 having the proportions shown in Table 24, or lacking both casein and the amino acid mixtures, and each of these treatments were provided with each of 0, 3, 10, or 30 mg/L treatments of 5-methyltryptophan (5MT). The vertical axis is the total weight increase in grams after the respective period.

loblolly cell lines [2] = test: asa2 (pWVC33) selection on Geneticin, 5MT or AMT, PCR check (Example 32); format: cell-based, Pinus taeda; settings: Geneticin 15 mg/L with casein hydrolysate, 5MT or AMT 30 mg/L with AA4
Procedure: Two loblolly cell lines were prepared for transformation using the method of Example 28, and co-cultivated with Agrobacterium tumefaciens transformed with pWVC33 (FIG. 7) as described in Example 28. Following eradication of Agrobacterium, each cell line was equally divided onto 6 plates each of 5 different selection media containing either casein hydrolysate and Geneticin at 15 mg/L, or amino acid mixture AA4 and either 5-methyltryptophan (5MT) at 30 or 50 mg/L or […] (AMT) at 30 or 50 mg/L. The results are show in FIG. 12. Putatively transformed sublines grow on Geneticin-containing plates and on both selection treatments where 30 mg/L of the methylated tryptophan selective analog was incorporated.

loblolly pine cell lines = test: als/Ally selection on medium without casein hydrolysate, PCR verification (Example 28); format: cell-based, Pinus taeda; settings: selection on 50 nM or 100 nm Ally, no casein hydrolysate; seven sublines tested by PCR
Source text: In this example, five loblolly pine cell lines from four elite families were transformed with plasmids containing the als selectable marker, and selection was done on a sulfonylurea-containing selection medium modified to exclude casein hydrolysate. The five pine cell lines were initiated as described in Example 26, except that one of the five lines was an elite loblolly cross grown in an International Paper seed orchard in Georgia. The lines were cryopreserved, retrieved, and cultured as uniform suspensions as described in Example 26.
To prepare for gene transfer, polyester membrane supports were sterilized by autoclaving and placed in separate sterile Buchner funnels, and for each of six replicate plates per cell line, one to three milliliters of pine embryogenic suspension was pipetted onto each support such that the embryogenic tissue was evenly distributed. The liquid medium was suctioned from the tissues and each support bearing the embryogenic tissue was placed on gelled DCR3 preparation medium for Agrobacterium inoculation according to the methods described in U.S. Patent Publication No. 20020100083. […]

loblolly cell lines [3] = test: pWVC23 transformants selected on Ally, checked on Geneticin and by PCR (Example 30); format: cell-based, Pinus taeda; settings: Ally at either 50 or 100 nM
Procedure: Two loblolly cell lines were prepared for transformation using the same methods of Example 28, and co-cultivated with Agrobacterium tumefaciens transformed with pWVC23(FIG. 3), also as described in Example 28. Following eradication of Agrobacterium, each cell line was equally divided onto selection medium containing either Geneticin at 15 mg/L or Ally at either 50 or 100 nM. After putatively transformed sublines were grown to a sufficient size, nine sublines grown on Ally-containing media were transferred to Geneticin-containing media to check transformation status rapidly before PCR. 100% of these lines are able to grow on Geneticin-containing media. Five of these lines were then checked with PCR using the six primer pairs described in Example 28. 100% of these lines were confirmed postive transformants by PCR.

[4] = tested on: 13 loblolly and hybrid pine lines; test: Growth on synthetic casein hydrolysate mixtures with Ally (FIG. 10); format: cell-based, Pinus taeda and hybrid pine; settings: media with amino acid mixture in which branched chain amino acids are absent; Ally 0, 10, 30, or 50 mM
Procedure: The synthetic mixtures were tested in 13 loblolly and hybrid pine lines from 7 genetically diverse families. These lines were initiated and cryopreserved as described in Example 26, and were placed into uniform suspension cultures and plated onto the respective media treatments as described in Example 27. Media for the experiment comprised DCR2 maintenance media containing either 0.5 g/L casein hydrolysate, 0.5 g/L of one of the derived mixtures having the proportions shown in Table 24, or lacking both casein and the amino acid mixtures, and each of these treatments were provided with each of 0, 10, 30, or 50 mM treatments of the herbicide Ally® (commercially available from Dupont™).

SMILES: Cc1ccc2[nH]cc(C[C@H](N)C(=O)O)c2c1 [5MT30, 5-methyltryptophan]
- reduction in growth, FIG. 11 [1]: only in the absence of tryptophan is it possible to obtain satisfactory reduction in growth
- False positive Frequency (loblolly cell lines [2]): 0.13
- PCR confirmed positive (number of lines) (loblolly cell lines [2]; of 12, 8, 22 lines PCR tested): 7

SMILES: COC(=O)c1ccccc1S(=O)(=O)NC(=O)Nc1nc(C)nc(OC)n1 [Ally]
- false positive rate (loblolly pine cell lines): 14%
- lines confirmed positive transformants by PCR (loblolly cell lines [3]; five lines checked): 100%
- Ally-selected sublines able to grow on Geneticin-containing media (loblolly cell lines [3]; nine sublines): 100%
- growth of cells, FIG. 10 [4]: growth is retarded or stopped to a significant degree
